In ChEMBL document CHEMBL3751695, “Cationic lipid-conjugated hydrocortisone as selective antitumor agent” (Eur J Med Chem, 2016):
The source made the active and inactive calls. The rule behind the calls is not given here.

Key:
A549 [1] = test: Cytotoxicity against human A549 cells after 72 hrs by MTT assay; type: functional, cell-based; details: A549, 72 h
RAW264.7 [2] = test: Cytotoxicity against mouse RAW264.7 cells after 72 hrs by MTT assay; type: cell-based; details: RAW264.7, 72 h
[3] = Cytotoxicity against mouse NIH/3T3 cells after 72 hrs by MTT assay; type: cell-based; details: NIH3T3, 72 h
[4] = Cytotoxicity against mouse B16F10 cells after 72 hrs by MTT assay; type: functional, cell-based; details: B16-F10, 72 h
MCF7 = test: Cytotoxicity against human MCF7 cells after 72 hrs by MTT assay; type: functional, cell-based; details: MCF7, 72 h
RAW264.7 [5] = test: Induction of apoptosis in mouse RAW264.7 cells assessed as late apoptotic cells at 20 uM after 24 hrs by annexin-V-FITC/propidium iodide staining based flow cytometry (reference value: 5.64 %); type: cell-based; details: raw264.7, 24 h
[6] = Induction of apoptosis in mouse RAW264.7 cells assessed as viable cells at 20 uM after 24 hrs by annexin-V-FITC/propidium iodide staining based flow cytometry (reference value: 89.11 %); type: cell-based; details: read-out: Activity
B16-F10 [7] = test: Induction of apoptosis in mouse B16F10 cells assessed as early apoptotic cells at 20 uM after 24 hrs by annexin-V-FITC/propidium iodide staining based flow cytometry (reference value: 0.46 %); type: functional
[8] = Cytotoxicity against mouse B16F10 cells at 10 uM after 72 hrs by MTT assay in presence of 10 uM HYD; type: functional, B16-F10
A549 [9] = test: Induction of apoptosis in human A549 cells assessed as necrotic cells at 20 uM after 24 hrs by annexin-V-FITC/propidium iodide staining based flow cytometry (reference value: 3.23 %); type: functional
B16-F10 [10] = test: Induction of apoptosis in mouse B16F10 cells assessed as necrotic cells at 20 uM after 24 hrs by annexin-V-FITC/propidium iodide staining based flow cytometry (reference value: 1.41 %); type: functional
A549 [11] = test: Induction of apoptosis in human A549 cells assessed as late apoptotic cells at 20 uM after 24 hrs by annexin-V-FITC/propidium iodide staining based flow cytometry (reference value: 7.40 %); type: functional
A549 [12] = test: Induction of apoptosis in human A549 cells assessed as viable cells at 20 uM after 24 hrs by annexin-V-FITC/propidium iodide staining based flow cytometry (reference value: 87.96 %); type: functional; details: A549, 24 h, read-out: Activity
[13] = Induction of apoptosis in mouse NIH/3T3 cells assessed as late apoptotic cells at 20 uM after 24 hrs by annexin-V-FITC/propidium iodide staining based flow cytometry (reference value: 0.28 %); type: cell-based; details: nih3t3, 24 h
[14] = Induction of apoptosis in mouse NIH/3T3 cells assessed as necrotic cells at 20 uM after 24 hrs by annexin-V-FITC/propidium iodide staining based flow cytometry (reference value: 0.24 %); type: cell-based; details: nih3t3, 24 h
[15] = Cytotoxicity against mouse B16F10 cells at 20 uM after 72 hrs by MTT assay in presence of 20 uM HYD; type: functional, B16-F10
[16] = Induction of apoptosis in mouse NIH/3T3 cells assessed as viable cells at 20 uM after 24 hrs by annexin-V-FITC/propidium iodide staining based flow cytometry (reference value: 99.06 %); type: cell-based, NIH3T3; details: read-out: Activity
RAW264.7 [17] = test: Induction of apoptosis in mouse RAW264.7 cells assessed as necrotic cells at 20 uM after 24 hrs by annexin-V-FITC/propidium iodide staining based flow cytometry (reference value: 1.81%); type: cell-based; details: raw264.7, 24 h
[18] = Induction of apoptosis in mouse NIH/3T3 cells assessed as early apoptotic cells at 20 uM after 24 hrs by annexin-V-FITC/propidium iodide staining based flow cytometry (reference value: 0.43 %); type: cell-based; details: nih3t3, 24 h
B16-F10 [19] = test: Induction of apoptosis in mouse B16F10 cells assessed as viable cells at 20 uM after 24 hrs by annexin-V-FITC/propidium iodide staining based flow cytometry (reference value: 93.66 %); type: functional; details: B16-F10, 24 h, read-out: Activity
B16-F10 [20] = test: Induction of apoptosis in mouse B16F10 cells assessed as late apoptotic cells at 20 uM after 24 hrs by annexin-V-FITC/propidium iodide staining based flow cytometry (reference value: 4.47 %); type: functional
RAW264.7 [21] = test: Induction of apoptosis in mouse RAW264.7 cells assessed as early apoptotic cells at 20 uM after 24 hrs by annexin-V-FITC/propidium iodide staining based flow cytometry (reference value: 3.44 %); type: cell-based; details: raw264.7, 24 h
[22] = Cytotoxicity against mouse B16F10 cells at 10 and 20 uM after 72 hrs by MTT assay; type: functional, B16-F10
A549 [23] = test: Induction of apoptosis in human A549 cells assessed as early apoptotic cells at 20 uM after 24 hrs by annexin-V-FITC/propidium iodide staining based flow cytometry (reference value: 1.41 %); type: functional
B16-F10 [24] = test: Induction of apoptosis in mouse B16F10 cells assessed as increase in cytochrome C level at 20 uM after 36 hrs by western blot analysis; type: functional, cell-based
MDA-MB-231 [25] = test: Induction of apoptosis in human MDA-MB-231 cells assessed as late apoptotic cells at 20 uM after 24 hrs by annexin-V-FITC/propidium iodide staining based flow cytometry (reference value: 3.25 %); type: functional
[26] = Cell cycle arrest in mouse B16F10 cells assessed as accumulation at G1 phase at 20 uM after 24 hrs by propidium iodide staining based flow cytometry (reference value: 38.8 %); type: functional; details: B16-F10
B16-F10 [27] = test: Induction of apoptosis in mouse B16F10 cells assessed as increase in p53 expression at 20 uM after 36 hrs by […]; type: functional, cell-based
[28] = Cytotoxicity against human SKOV3 cells after 72 hrs by MTT assay; type: functional, cell-based; details: SK-OV-3, 72 h
Gallus gallus = organism: Gallus gallus; test: Antiangiogenic activity in chicken embryo assessed as inhibition of neovascularization at 40 uM after 4 hrs by microscopic analysis; type: functional, tissue-based
B16-F10 [29] = test: Induction of apoptosis in mouse B16F10 cells assessed as increase in cleaved caspase 3 level at 20 uM after 36 hrs by western blot analysis; type: functional, cell-based
HeLa = test: Cytotoxicity against human HeLa cells after 72 hrs by MTT assay; type: functional, cell-based
[30] = Cell cycle arrest in mouse B16F10 cells assessed as accumulation at G2/M phase at 20 uM after 24 hrs by propidium iodide staining based flow cytometry (reference value: 15.2 %); type: functional; details: B16-F10
B16-F10 [31] = test: Induction of apoptosis in mouse B16F10 cells assessed as increased Bax expression at 20 uM after 36 hrs by western blot analysis; type: functional, cell-based
MDA-MB-231 [32] = test: Induction of apoptosis in human MDA-MB-231 cells assessed as necrotic cells at 20 uM after 24 hrs by annexin-V-FITC/propidium iodide staining based flow cytometry (reference value: 5.40 %); type: functional
[33] = Cell cycle arrest in mouse B16F10 cells assessed as accumulation at subG0/G1 phase at 20 uM after 24 hrs by propidium iodide staining based flow cytometry (reference value: 40.7 %); type: functional; details: B16-F10
[34] = Toxicity in C57BL/J mouse xenografted with mouse B16F10 cells assessed as mortality rate at 6.11 mg/kg, ip measured 45 days after tumor inoculation; type: organism-based, B16-F10; details: in vivo, read-out: Activity
B16-F10 [35] = test: Induction of apoptosis in mouse B16F10 cells assessed as increase in ratio of Bax/Bcl2 level at 20 uM after 36 hrs by western blot analysis (reference value: 0.2); type: functional
[36] = Cell cycle arrest in mouse B16F10 cells assessed as accumulation at S phase at 20 uM after 24 hrs by propidium iodide staining based flow cytometry (reference value: 5.4 %); type: functional; details: B16-F10
B16-F10 [37] = test: Antitumor activity against mouse B16F10 cells xenografted in C57BL/J mouse assessed as inhibition of tumor growth at 6.11 mg/kg, ip; type: functional, organism-based
MDA-MB-231 [38] = test: Induction of apoptosis in human MDA-MB-231 cells assessed as viable cells at 20 uM after 24 hrs by annexin-V-FITC/propidium iodide staining based flow cytometry (reference value: 90.77 %); type: functional; details: MDA-MB-231, 24 h, read-out: Activity
[39] = Antitumor activity in mouse B16F10 cells xenografted in C57BL/J mouse assessed as increase in ratio of Bax/Bcl2 in tumor lysates at 6.11 mg/kg, ip by western blot analysis (reference value: 0.4); type: functional, Neoplasm, B16-F10
MDA-MB-231 [40] = test: Induction of apoptosis in human MDA-MB-231 cells assessed as early apoptotic cells at 20 uM after 24 hrs by annexin-V-FITC/propidium iodide staining based flow cytometry (reference value: 0.58 %); type: functional

CCCCCCCC[N+](C)(CCCCCCCC)CCNC(=O)[C@@]1(O)CC[C@H]2[C@@H]3CCC4=CC(=O)CC[C@]4(C)[C@H]3[C@@H](O)C[C@@]21C
IC50 (A549 [1]): 17.6 µM
IC50 (RAW264.7 [2]): 12.7 µM
IC50 [3]: 7.4 µM
IC50 [4]: 4.5 µM
IC50 (MCF7): 6.7 µM

CCCCCCCCCCCCCCCC[N+](C)(CCCCCCCCCCCCCCCC)CCNC(=O)OC(C)(C)C.[Cl-]
Activity (RAW264.7 [5]): 4.18%
viability at 24 h, 20 µM [6]: 91.3%
Activity (B16-F10 [7]): 1.75%
Activity [8]: 20%
Activity (A549 [9]): 1.65%
Activity (B16-F10 [10]): 4.16%
Activity (A549 [11]): 13.95%
viability at 20 µM (A549 [12]): 81.7%
Activity [13]: 0.96%
Activity [14]: 3.23%
Activity [15]: 20%
viability at 24 h, 20 µM [16]: 94.9%
Activity (RAW264.7 [17]): 0.86%
Activity [18]: 0.94%
viability at 20 µM (B16-F10 [19]): 81.5%
Activity (B16-F10 [20]): 12.56%
Activity (RAW264.7 [21]): 3.66%
Activity [22]: 20%
Activity (A549 [23]): 2.7%

CCCCCCCCCCCC[N+](C)(CCCCCCCCCCCC)CCNC(=O)[C@@]1(O)CC[C@H]2[C@@H]3CCC4=CC(=O)CC[C@]4(C)[C@H]3[C@@H](O)C[C@@]21C
IC50 (A549 [1]): 3.4 µM
IC50 (RAW264.7 [2]): 4 µM
IC50 [3]: 3.36 µM
IC50 [4]: 3.4 µM
IC50 (MCF7): 4.6 µM

CCCCCCCCCCCCCC[N+](C)(CCCCCCCCCCCCCC)CCNC(=O)[C@@]1(O)CC[C@H]2[C@@H]3CCC4=CC(=O)CC[C@]4(C)[C@H]3[C@@H](O)C[C@@]21C
IC50 (A549 [1]): 3.3 µM
IC50 (RAW264.7 [2]): 8.77 µM
IC50 [3]: 4.85 µM
IC50 [4]: 16.2 µM
IC50 (MCF7): 13.6 µM

CCCCCCCCCC[N+](C)(CCCCCCCCCC)CCNC(=O)[C@@]1(O)CC[C@H]2[C@@H]3CCC4=CC(=O)CC[C@]4(C)[C@H]3[C@@H](O)C[C@@]21C
IC50 (A549 [1]): 12.6 µM
IC50 (RAW264.7 [2]): 6.2 µM
IC50 [3]: 3.77 µM
IC50 [4]: 4.7 µM
IC50 (MCF7): 3.7 µM

C[C@]12CCC(=O)C=C1CC[C@@H]1[C@@H]2[C@@H](O)C[C@@]2(C)[C@H]1CC[C@]2(O)C(=O)CO [HYDROCORTISONE]
Activity (RAW264.7 [5]): 3.13%
viability at 24 h, 20 µM [6]: 93.8%
Activity (B16-F10 [24]): Active
Activity (MDA-MB-231 [25]): 8.1%
IC50 (A549 [1]): > 20 µM
Activity (B16-F10 [7]): 0.77%
IC50 (RAW264.7 [2]): > 20 µM
Activity [26]: 20.9%
IC50 [3]: > 20 µM
Activity (A549 [9]): 2.97%
Activity (B16-F10 [27]): Active
IC50 [28]: > 20 µM
Activity (B16-F10 [10]): 1.04%
inhibition (Gallus gallus): inactive
Activity (A549 [11]): 7.09%
Activity (B16-F10 [29]): Active
IC50 [4]: > 20 µM
viability at 20 µM (A549 [12]): 88.4%
Activity [13]: 0.16%
IC50 (HeLa): > 20 µM
Activity [30]: 17.9%
Activity (B16-F10 [31]): Active
Activity (MDA-MB-231 [32]): 2.46%
Activity [14]: 0.1%
viability at 24 h, 20 µM [16]: 99.5%
Activity [33]: 56.6%
mortality at 1080 h [34]: 70%
Activity (RAW264.7 [17]): 0.69%
Activity [18]: 0.01%
IC50 (MCF7): > 20 µM
Ratio (B16-F10 [35]): 0.3
Activity [36]: 4.6%
viability at 20 µM (B16-F10 [19]): 89%
Activity (B16-F10 [20]): 9.14%
inhibition (B16-F10 [37]): Active
Activity (RAW264.7 [21]): 2.39%
Activity (A549 [23]): 1.55%
viability at 20 µM (MDA-MB-231 [38]): 87.4%
Ratio [39]: 0.8
Activity (MDA-MB-231 [40]): 2.05%
